Measured values from US9988430B2, “Stable GLP-1 based GLP-1/glucagon receptor co-agonists” (Novo Nordisk A/S, priority 2014, dated 2018).
*1 amine or outer side, *2 acyl side, *3 side chain or, on linkers, in order; H or OH if unused. Where a SMILES comes first, the peptide text is derived from it. Bridges are numbered along the chain shown (N, C = ends). Roman numbers before positions name the chains, in order. Side-chain parts run from the residue outwards. [ ]: non-standard residue; d: D form. The star is where a group is joined. C18 diacid = O=C(O)CCCCCCCCCCCCCCCCC(=O)*; γGlu = O=C(O)[C@H](CCC(=O)[*:2])N[*:1]; Desaminohistidyl = O=C(CCc1c[nH]cn1)*; Ac4c = NC1(C(=O)O)CCC1; AEEA = NCCOCCOCC(=O)O

Tests used:
human GLP-1 receptor [1] = molecular target: T1, human GLP-1 receptor (Homo sapiens, UniProt P43220); assay: Assay (I)(a): GLP-1 receptor potency, CRE luciferase reporter gene assay in BHK cells; type: cell-based; conditions: BHK cells expressing human GLP-1 receptor, read-out: EC50 GLP-1R
T1 construct: expressed in transfected cells; host or cells: membranes of BHK cells, parent line BHKTS13, clone FCW467-12A
T1 sequence (P43220 24-463): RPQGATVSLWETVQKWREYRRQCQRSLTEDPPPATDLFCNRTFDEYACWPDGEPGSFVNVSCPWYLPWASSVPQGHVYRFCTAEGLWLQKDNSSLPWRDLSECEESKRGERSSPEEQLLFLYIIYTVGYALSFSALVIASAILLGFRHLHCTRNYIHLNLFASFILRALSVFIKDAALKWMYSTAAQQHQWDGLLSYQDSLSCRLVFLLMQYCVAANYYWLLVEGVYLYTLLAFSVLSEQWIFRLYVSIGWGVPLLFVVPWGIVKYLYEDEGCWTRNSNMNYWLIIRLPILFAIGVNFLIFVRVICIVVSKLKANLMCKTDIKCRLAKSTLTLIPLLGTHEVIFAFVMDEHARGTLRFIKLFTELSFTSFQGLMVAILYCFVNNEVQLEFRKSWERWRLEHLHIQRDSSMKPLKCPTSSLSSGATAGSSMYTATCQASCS
Experimental: Assay (I): GLP-1 and Glucagon Receptor Potency The purpose of this example was to test the activity or potency, of the GLP-1 derivatives of the invention, in vitro. The in vitro potency is the measure of human GLP-1 receptor (GLP-1R) or glucagon receptor (glucagonR) activation, respectively, in a whole cell assay. In vitro potency was determined by measuring the cellular response of human GLP-1 or glucagon receptor activation, respectively, in a reporter gene assay. The assay was performed in a BHK cell line that stably expresses either the human GLP-1 receptor or the human glucagon receptor and comprises the DNA for the cAMP response element (CRE) coupled to a promoter and the gene for firefly luciferase (CRE luciferase). […] When assay incubation was completed, the luciferase substrate (luciferin) was added and the enzyme converted luciferin to oxyluciferin and produces bioluminescence. The luminescence was measured as the readout for the assay. (a) GLP-1 Receptor Activation The cells used in this assay (clone FCW467-12A/KZ10-1) were BHK cells with BHKTS13 as a parent cell line. The cells were derived from a clone (FCW467-12A) that expresses the human GLP-1 receptor and were established by further transfection with CRE luciferase to obtain the current clone. The cells were cultured at 5% CO2 in DMEM medium with 10% FBS, 1×GlutaMAX, 1 mg/ml G418, 240 nM MTX (methotrexate) and 1% pen/strep (penicillin/streptomycin). They were aliquoted and stored in liquid nitrogen. Before each assay, an aliquot was taken up and washed three times in PBS before being suspended at the desired concentration in assay medium. For 96-well plates the suspension was made to give a final concentration of 5×10EE3 cells/well. The following chemicals were used in the assay: Pluronic F-68 (10%) (Gibco 2404), Ovalbumin (Sigma A5503), DMEM w/o phenol red (Gibco 11880-028), 1 M Hepes (Gibco 15630), Glutamax 100× (Gibco 35050) and steadylite plus (PerkinElmer 6016757). Assay Medium consisted of DMEM w/o phenol red, 10 mM Hepes, 1×GlutaMAX, 2% Ovalbumin and 0.2% Pluronic F-68. Cell stocks were thawed in a 37° C. water bath. Cells were washed three times in PBS. The cells were counted and adjusted to 5×10EE3 cells/50 μl (1×10EE5 cells/ml) in Assay Medium. A 50 μl aliquot of cells was transferred to each well in the assay plate. Stocks of the test compounds and reference compounds were diluted to a concentration of […] in Assay Medium. Compounds were diluted 10-fold to give the following concentrations: 2×10EE-6 M, 2×10EE-7 M, 2×10EE-8 M; 2×10EE-9 M, 2×10EE-10 M, 2×10EE-11 M, 2×10EE-12 M and 2×10EE-13 M. For each compound a blank assay medium control was also included. A 50 μl aliquot of compound or blank was transferred from the dilution plate to the assay plate. Compounds were tested at the following final concentrations: 1×10EE-6 M, 1×10EE-7 M, 1×10EE-8 M; 1×10EE-9 M, 1×10EE-10 M, 1×10EE-11 M and 1×10EE-12 M and 1×10EE-13 M. The assay plate was incubated for 3 h in a 5% CO2 incubator at 37° C. The assay plate was removed from the incubator and allowed to stand at room temperature for 15 min. A 100 μl aliquot of steadylite plus reagent was added to each well of the assay plate (reagent is light sensitive). Each assay plate was covered with aluminum foil to protect it from light and shaken for 30 min at room temperature. Each assay plate was read in a Perkin Elmer TopCount NXT instrument. The data from the TopCount instrument was transferred to GraphPad Prism software. The software performed a non-linear regression (log(agonist) vs response-Variable slope (four parameter)). EC50 values were calculated by the software and reported in pM.

human GLP-1 receptor [2] = molecular target: T1, human GLP-1 receptor; assay: Assay (II)(a): GLP-1 receptor binding, [125I]GLP-1 displacement, SPA on BHK membranes; conditions: displacement of [125I]GLP-1, membranes with human GLP-1 receptor; read-out: IC50 GLP-1R
Method in brief: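 Membranes from BHK cells expressing human GLP-1 receptor with WGA SPA beads, [125I]GLP-1(7-36)NH2 (480 pM added solution) and compound in HEPES pH 7.4 buffer with EGTA, MgCl2, Tween 20. Incubated 2 h at 30° C; SPA counts fitted by non-linear regression to IC50 in nM.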

Structure (SMILES) | EC50 (human GLP-1 receptor [1]) [pM] | IC50 (human GLP-1 receptor [2]) [pM]
CC[C@H](C)[C@H](NC(=O)[C@H](Cc1ccccc1)NC(=O)[C@H](CCC(=O)O)NC(=O)[C@H](CCCNC(=N)N)NC(=O)[C@H](C)NC(=O)[C@H](C)NC(=O)[C@H](CCC(N)=O)NC(=O)[C@H](CCC(=O)O)NC(=O)[C@H](CCC(=O)O)NC(=O)[C@H](CC(C)C)NC(=O)[C@H](Cc1ccc(O)cc1)NC(=O)[C@H](CCCNC(=N)N)NC(=O)[C@H](CO)NC(=O)[C@H](Cc1ccc(O)cc1)NC(=O)[C@H](CC(=O)O)NC(=O)[C@H](CO)NC(=O)[C@@H](NC(=O)[C@H](Cc1ccccc1)NC(=O)[C@@H](NC(=O)CNC(=O)[C@H](Cc1c[nH]cn1)NC(=O)C1(NC(=O)CCc2c[nH]cn2)CCC1)[C@@H](C)O)[C@@H](C)O)C(=O)N[C@@H](C)C(=O)N[C@@H](Cc1c[nH]c2ccccc12)C(=O)N[C@@H](CC(C)C)C(=O)N[C@@H](CC(C)C)C(=O)N[C@@H](CCCNC(=N)N)C(=O)N[C@@H](CCCCNC(=O)CC[C@H](NC(=O)COCCOCCNC(=O)CC[C@H](NC(=O)COCCOCCNC(=O)CC[C@H](NC(=O)COCCOCCNC(=O)CC[C@H](NC(=O)CC[C@H](NC(=O)CCCCCCCCCCCCCCCCC(=O)O)C(=O)O)C(=O)O)C(=O)O)C(=O)O)C(=O)O)C(N)=O [Example 22, N^ε35-[(4S)-4-carboxy-4-[[2-[2-[2-[[(4S)-4-carboxy-4-[[2-[2-[2-[[(4S)-4-carboxy-4-[[2-[2-[2-[[(4S)-4-carboxy-4-[[(4S)-4-carboxy-4-(17-carboxyheptadecanoylamino)butanoyl]amino]butanoyl]amino]ethoxy]ethoxy]acetyl]amino]butanoyl]amino]ethoxy]ethoxy]acetyl]amino]butanoyl]amino]ethoxy]ethoxy]acetyl]amino]butanoyl]-[Imp7,Acb8,His9,Tyr16,Arg18,Glu22,Arg26,Leu33,Arg34,Lys35]-GLP-1-(7-35)-peptide amide] (Desaminohistidyl-[Ac4c]HGTFTSDYSRYLEEQAAREFIAWLLRK([γGlu-AEEA-γGlu-AEEA-γGlu-AEEA-γGlu-γGlu-C18 diacid])-NH2) | 3 | 900
CC[C@H](C)[C@H](NC(=O)[C@H](Cc1ccccc1)NC(=O)[C@H](CCC(=O)O)NC(=O)[C@H](CCCNC(=N)N)NC(=O)[C@H](C)NC(=O)[C@H](C)NC(=O)[C@H](CCC(N)=O)NC(=O)[C@H](CCCNC(=N)N)NC(=O)[C@H](CCC(=O)O)NC(=O)[C@H](CC(C)C)NC(=O)[C@H](Cc1ccc(O)cc1)NC(=O)[C@H](CCCCN)NC(=O)[C@H](CO)NC(=O)[C@H](Cc1ccc(O)cc1)NC(=O)[C@H](CC(=O)O)NC(=O)[C@H](CO)NC(=O)[C@@H](NC(=O)[C@H](Cc1ccccc1)NC(=O)[C@@H](NC(=O)CNC(=O)[C@H](Cc1c[nH]cn1)NC(=O)C1(NC(=O)CCc2c[nH]cn2)CCC1)[C@@H](C)O)[C@@H](C)O)C(=O)N[C@@H](C)C(=O)N[C@@H](Cc1c[nH]c2ccccc12)C(=O)N[C@@H](CC(C)C)C(=O)N[C@@H](CC(C)C)C(=O)N[C@@H](CCCCN)C(=O)N[C@@H](CCCCNC(=O)CC[C@H](NC(=O)COCCOCCNC(=O)CC[C@H](NC(=O)COCCOCCNC(=O)CC[C@H](NC(=O)COCCOCCNC(=O)CC[C@H](NC(=O)CC[C@H](NC(=O)CCCCCCCCCCCCCCCCC(=O)O)C(=O)O)C(=O)O)C(=O)O)C(=O)O)C(=O)O)C(N)=O [Example 23, N^ε35-[(4S)-4-carboxy-4-[[2-[2-[2-[[(4S)-4-carboxy-4-[[2-[2-[2-[[(4S)-4-carboxy-4-[[2-[2-[2-[[(4S)-4-carboxy-4-[[(4S)-4-carboxy-4-(17-carboxyheptadecanoylamino)butanoyl]amino]butanoyl]amino]ethoxy]ethoxy]acetyl]amino]butanoyl]amino]ethoxy]ethoxy]acetyl]amino]butanoyl]amino]ethoxy]ethoxy]acetyl]amino]butanoyl]-[Imp7,Acb8,His9,Tyr16,Lys18,Arg22,Arg26,Leu33,Lys35]-GLP-1-(7-35)-peptide amide] (Desaminohistidyl-[Ac4c]HGTFTSDYSKYLERQAAREFIAWLLKK([γGlu-AEEA-γGlu-AEEA-γGlu-AEEA-γGlu-γGlu-C18 diacid])-NH2) | 7 | 2300
CC[C@H](C)[C@H](NC(=O)[C@H](Cc1ccccc1)NC(=O)[C@H](CCC(=O)O)NC(=O)[C@H](CCCNC(=N)N)NC(=O)[C@H](C)NC(=O)[C@H](C)NC(=O)[C@H](CCC(N)=O)NC(=O)[C@H](CCC(=O)O)NC(=O)[C@H](CCC(=O)O)NC(=O)[C@H](CC(C)C)NC(=O)[C@H](Cc1ccc(O)cc1)NC(=O)[C@H](CCCNC(=N)N)NC(=O)[C@H](CO)NC(=O)[C@@H](NC(=O)[C@H](CC(=O)O)NC(=O)[C@H](CO)NC(=O)[C@@H](NC(=O)[C@H](Cc1ccccc1)NC(=O)[C@@H](NC(=O)CNC(=O)[C@H](Cc1c[nH]cn1)NC(=O)CNC(=O)CCc1c[nH]cn1)[C@@H](C)O)[C@@H](C)O)C(C)C)C(=O)N[C@@H](C)C(=O)N[C@@H](Cc1c[nH]c2ccccc12)C(=O)N[C@@H](CC(C)C)C(=O)N[C@@H](CC(C)C)C(=O)N[C@@H](CCCCNC(=O)CNC(=O)[C@H](CO)NC(=O)[C@H](CCC(=O)O)NC(=O)CNC(=O)[C@H](CO)NC(=O)CC[C@H](NC(=O)CC[C@H](NC(=O)CCCCCCCCCCCCCCCCC(=O)O)C(=O)O)C(=O)O)C(=O)N[C@H](C(N)=O)[C@@H](C)O [Example 37, N^ε34-[2-[[(2S)-2-[[(2S)-4-carboxy-2-[[2-[[(2S)-2-[[(4S)-4-carboxy-4-[[(4S)-4-carboxy-4-(17-carboxyheptadecanoylamino)butanoyl]amino]butanoyl]amino]-3-hydroxypropanoyl]amino]acetyl]amino]butanoyl]amino]-3-hydroxypropanoyl]amino]acetyl]-[Imp7,Gly8,His9,Arg18,Glu22,Arg26,Leu33,Thr35]-GLP-1-(7-35)-peptide amide] (I: Desaminohistidyl-GHGTFTSDVSRYLEEQAAREFIAWLLKT-NH2 / II: {C18 diacid-γGlu-γGlu}-SGESG; amide I:27-II:C) | 8 | 3200
